In US11964988B2, “Fused heterocyclic compounds as RET kinase inhibitors” (ARRAY BIOPHARMA INC., priority 2018, dated 2024):
Numbering of substitutions follows the chain as printed.

Experiments:
[1] = target: T1, HEK-293 cells expressing a Kif5b-RET fusion protein (Homo sapiens, UniProt P07949); test: RET Cell Assay (phospho-RET Tyr1062); assay type: cell-based; conditions: HEK-293 Kif5b-RET, 1 hour incubation, phospho-RET normalized to GAPDH; read-out: KIF5B-RET pTYR1062 Cell IC50
T1 construct: KIF5B (N-terminal portion incl. coiled-coil); expressed in transfected cells; host or cells: HEK-293; the other entry of the earlier key: KIF5B (P33176, Kinesin-1 heavy chain)
T1 sequence (P07949 713-1063 limits assumed): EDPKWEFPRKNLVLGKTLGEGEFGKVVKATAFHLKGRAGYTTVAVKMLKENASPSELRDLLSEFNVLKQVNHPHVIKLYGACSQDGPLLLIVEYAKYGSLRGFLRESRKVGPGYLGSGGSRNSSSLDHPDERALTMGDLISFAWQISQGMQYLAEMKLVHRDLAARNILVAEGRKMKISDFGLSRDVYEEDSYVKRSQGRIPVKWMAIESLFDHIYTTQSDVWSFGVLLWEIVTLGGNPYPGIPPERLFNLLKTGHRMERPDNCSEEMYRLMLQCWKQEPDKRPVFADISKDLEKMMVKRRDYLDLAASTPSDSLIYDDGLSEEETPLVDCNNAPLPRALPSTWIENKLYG
Outline: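 Kif5b-RET HEK-293 cells treated 1 hour with compound in DMEM (0.5% DMSO final), then fixed and immunostained for phospho-RET Tyr1062, normalized to GAPDH by infrared fluorescence. IC50 where the 4-parameter logistic fit of POC crosses 50.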

RET kinase V804M = RET kinase V804M (Homo sapiens, UniProt P07949, V804M); test: RET Enzyme Assay (CisBio HTRF KinEASE-TK), V804M; assay type: biochemical; conditions: read-out: RET V804M Enz FRET IC50
Chain of RET kinase V804M (P07949 29-1114 V804M): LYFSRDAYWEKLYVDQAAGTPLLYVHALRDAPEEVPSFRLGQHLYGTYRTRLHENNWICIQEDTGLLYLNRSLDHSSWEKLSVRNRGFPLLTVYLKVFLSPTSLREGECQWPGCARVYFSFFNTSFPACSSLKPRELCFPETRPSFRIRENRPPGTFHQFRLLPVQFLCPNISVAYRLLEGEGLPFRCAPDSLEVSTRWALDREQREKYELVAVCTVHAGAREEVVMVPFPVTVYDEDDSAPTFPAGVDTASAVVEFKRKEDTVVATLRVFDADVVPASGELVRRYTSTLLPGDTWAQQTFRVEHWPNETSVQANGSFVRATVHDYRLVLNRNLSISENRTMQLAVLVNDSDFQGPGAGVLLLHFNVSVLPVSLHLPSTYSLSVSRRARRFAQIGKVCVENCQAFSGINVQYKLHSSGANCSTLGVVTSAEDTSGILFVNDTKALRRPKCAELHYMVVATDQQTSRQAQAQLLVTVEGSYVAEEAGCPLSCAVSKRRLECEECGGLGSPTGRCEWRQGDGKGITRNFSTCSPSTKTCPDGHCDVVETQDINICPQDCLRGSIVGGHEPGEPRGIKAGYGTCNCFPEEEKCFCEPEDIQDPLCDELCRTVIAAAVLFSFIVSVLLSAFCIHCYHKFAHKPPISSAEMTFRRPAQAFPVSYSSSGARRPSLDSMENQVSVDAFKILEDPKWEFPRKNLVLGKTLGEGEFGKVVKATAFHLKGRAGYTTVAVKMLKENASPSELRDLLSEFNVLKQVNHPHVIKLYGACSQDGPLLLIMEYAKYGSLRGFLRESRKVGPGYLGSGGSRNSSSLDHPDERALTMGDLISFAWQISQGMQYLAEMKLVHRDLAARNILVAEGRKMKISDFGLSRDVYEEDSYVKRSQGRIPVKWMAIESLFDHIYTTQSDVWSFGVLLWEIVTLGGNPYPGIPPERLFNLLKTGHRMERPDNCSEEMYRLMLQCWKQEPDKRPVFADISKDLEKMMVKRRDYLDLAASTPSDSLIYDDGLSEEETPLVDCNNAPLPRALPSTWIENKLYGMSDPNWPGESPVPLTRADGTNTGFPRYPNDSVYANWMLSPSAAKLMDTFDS

G810R mutant RET kinase = G810R mutant RET kinase (Homo sapiens, UniProt P07949, G810R); test: biochemical;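 note: HTRF KinEASE-TK enzymatic assay with 1 nM recombinant RET G810R, 1 h at 22 °C, dual-wavelength ratiometric readout, 100% control without compound, 0% from pre-quenched reactions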
Chain of G810R mutant RET kinase (P07949 29-1114 G810R): as the sequence (P07949 29-1114 V804M) above, with M776V, G782R counted along it

[2] = target: T2, HEK-293 cells expressing a G810S mutant RET Kif5b-RET fusion protein (Homo sapiens, UniProt P07949, G810S); test: RET G810S Mutant Cell Assay (phospho-RET Tyr1062); assay type: cell-based; conditions: HEK-293 Kif5b-RET G810S, 1 hour incubation, phospho-RET normalized to GAPDH
T2 construct: KIF5B (N-terminal portion incl. coiled-coil); expressed in transfected cells; host or cells: HEK-293
T2 sequence (P07949 713-1063 G810S limits assumed): T1 sequence (P07949 713-1063 limits assumed) with G98S
Protocol: The cellular potency of compounds inhibiting RET kinase were determined in HEK-293 cells expressing a G810R or G810S mutant RET Kif5b-RET fusion protein. Briefly, HEK-293 cells expressing a G810R or G810S mutant RET Kif5b-RET fusion protein were plated at 50K cells/well in 96 well poly-D-Lysine coated plates the day prior to the assay. The cells were incubated for 1 hour with test compound in DMEM (Dulbecco's Modified Eagle Medium) at a final DMSO concentration of 0.5%. […] After 1 hour the media was removed, the cells were fixed with 3.8% formaldehyde for 20 min, washed with PBS, and permeabilized for 10 min with 100% methanol. The plates were then washed with PBS-0.05% Tween20, and blocked with LI-COR Blocking solution (LI-COR Catalog No. 927-40000) for 1 hour. Plates were washed with PBS-0.05% Tween20, then incubated with anti-phospho-RET (Tyr1062) (Santa Cruz Catalog No. sc-20252-R) antibody and anti-GAPDH (Millipore Catalog No. MAB374) antibody for 2 hours. The plates were washed with PBS-0.05% Tween20, and incubated with anti-rabbit 680 (Molecular Probes Catalog No. A21109) and anti-mouse 800 (LI-COR Catalog No. 926-32210) secondary antibodies for 1 hour. All antibodies were diluted in LI-COR Block containing 0.05% Tween. The plates were washed with PBS-0.05% Tween20,100 μL PBS was added to each well, and the plates were read on a LI-COR Aerius fluorescent plate reader. The phospho-RET signal was normalized to the GAPDH signal. […] The POC values are fit to a 4 parameter logistic curve. The IC50 value is the point where the curve crosses 50 POC.

[3] = target: T3, HEK-293 cells expressing a G810R mutant RET Kif5b-RET fusion protein (Homo sapiens, UniProt P07949, G810R); test: RET G810R Mutant Cell Assay (phospho-RET Tyr1062); assay type: cell-based; conditions: HEK-293 Kif5b-RET G810R, 1 hour incubation, phospho-RET normalized to GAPDH
T3 construct: KIF5B (N-terminal portion incl. coiled-coil); expressed in transfected cells; host or cells: HEK-293; the other entry of the earlier key: KIF5B (P33176, Kinesin-1 heavy chain)
T3 sequence (P07949 713-1063 G810R limits assumed): T1 sequence (P07949 713-1063 limits assumed) with G98R
Outline: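 Engineered HEK-293 cells were treated 1 h with compound in DMEM, 0.5% DMSO final, then fixed, permeabilized and immunostained for phospho-RET Tyr1062 and GAPDH. In-cell fluorescence pRET signal was normalized to GAPDH; IC50 taken from a 4-parameter logistic fit of percent of control at 50 POC.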

G810S mutant RET kinase = G810S mutant RET kinase (Homo sapiens, UniProt P07949, G810S); test: biochemical;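 note: HTRF KinEASE-TK kinase assay with recombinant enzyme, 1 h at 22 °C, dual-wavelength ratiometric read-out, percent of control (DMSO-only = 100, pre-quenched reaction = 0)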
Chain of G810S mutant RET kinase (P07949 29-1114 G810S): as the sequence (P07949 29-1114 V804M) above, with M776V, G782S counted along it
Protocol: The potency of compounds inhibiting several different RET kinase forms (Wild Type, V804M, G810R, & G810S) were determined using CisBio's HTRF® KinEASE™-TK assay technology. […] After a 1 hour incubation at 22° C., the extent of reaction was determined using a PerkinElmer EnVision multimode plate reader via HTRF dual wavelength detection, and the percent of control (POC) was calculated using a ratiometric emission factor. One hundred POC was determined using DMSO only samples (no compound present), and 0 POC was determined using pre-quenched control reactions.
The potency of a compound inhibiting G810R or G810S mutant RET kinase was determined using CisBio's HTRF® KinEASE™-TK assay technology. The assays contained G810R or G810S mutant RET produced at Array Biopharma, Inc. (1 nM enzyme). […] After a 1-h incubation at 22° C., the extent of reaction was determined using a PerkinElmer EnVision multimode plate reader via HTRF dual wavelength detection, and the percent of control (POC) was calculated using a ratiometric emission factor. One hundred POC was determined using no test compounds, and 0 POC was determined using pre-quenched control reactions.

RET kinase Wild Type = RET kinase Wild Type (Homo sapiens, UniProt P07949); test: biochemical;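 note: HTRF kinase activity assay on RET enzyme, 1 h reaction at 22 °C, dual-wavelength readout as percent of control, DMSO-only wells as 100%, pre-quenched reactions as 0%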
Chain of RET kinase Wild Type (P07949 29-1114): as the sequence (P07949 29-1114 V804M) above, with M776V counted along it

Row | IC50 [1] [nM] | IC50 (RET kinase V804M) [nM] | IC50 (G810R mutant RET kinase) [nM] | IC50 [2] [nM] | IC50 [3] [nM] | IC50 (G810S mutant RET kinase) [nM] | IC50 (RET kinase Wild Type) [nM] | Compound
1 | 63 | 87 | 43 | 68 | 98 | 116 | 26 | C[C@H](n1c2c(c3c(N)ncnc31)-c1noc(C3CC3)c1[C@@H](O)CC2)C(F)(F)F (single isomer, unassigned) [Example 146, 2,2,2-trifluoroacetate]
2 | 14 | 27 | 86 | 57 | 113 | 55 | 9 | CO[C@@H]1CCc2c(c3c(N)ncnc3n2C2(C)CC2)-c2noc(C3CC3)c21 [Example 151, (R)-3-Cyclopropyl-4-methoxy-7-(1-methylcyclopropyl)-4,5,6,7-tetrahydroisoxazolo[4″,3″:6′,7]cyclohepta[1′,2′:4,5]pyrrolo[2,3-d]pyrimidin-11-amine]
3 | 19 | 80 | 89 | 33 | 44 | 49 | 24 | Nc1ncnc2c1c1c(n2C2CCCC2)CCC(O)c2c-1noc2C1CC1 (single isomer, unassigned) [Example 124]
4 | 85 | – | 187 | 116 | 142 | 393 | 27 | COCCn1ccc(NC(=O)c2ccc3cc4n(c3c2)CCCc2c-4c3c(N)ncnc3n2C(C)C)n1 [Example 96, 1-amino-5-isopropyl-N-(1-(2-methoxyethyl)-1H-pyrazol-3-yl)-5,6,7,8-tetrahydropyrimido[5″,4″:4′,5′]pyrrolo[3′,2′: 3,4]azepino[1,2-a]indole-11-carboxamide]
5 | 16 | – | 1030 | 36 | 49 | 474 | 75 | CC(=O)Nc1ccc2cc3n(c2c1)CCCc1c-3c2c(N)ncnc2n1C(C)C [Example 139, N-(1-amino-5-isopropyl-5,6,7,8-tetrahydropyrimido[5″,4″:4′,5′]pyrrolo[3′,2′:3,4]azepino[1,2-a]indol-11-yl)acetamide]

Second part, the molecule before the results:

Row | Compound | IC50 [1] [nM] | IC50 (RET kinase V804M) [nM] | IC50 (G810R mutant RET kinase) [nM] | IC50 [2] [nM] | IC50 [3] [nM] | IC50 (G810S mutant RET kinase) [nM] | IC50 (RET kinase Wild Type) [nM]
6 | CC(C)n1c2c(c3c(N)ncnc31)-c1noc(C3CC3)c1[C@@H](O)[C@H](C)C2 (single isomer, unassigned) [Example 64] | 47 | 182 | 169 | 90 | 119 | 76 | 39
7 | CC(C)n1c2c(c3c(N)ncnc31)-c1cc3cc(Cl)ccc3n1C(=O)NC2 [Example 77, 1-amino-12-chloro-5-isopropyl-6,7-dihydropyrimido[5″,4″:4′,5′]pyrrolo[2′,3′: 5,6][1,3]diazepino[1,7-a]indol-8(5H)-one] | 13 | – | 135 | 32 | 89 | 73 | 27
8 | CC(=O)N1Cc2c(noc2C2CC2)-c2c(n(C(C)C)c3ncnc(N)c23)C1 [Example 36, 1-(11-amino-3-cyclopropyl-7-isopropyl-6,7-dihydroisoxazolo[4,3-c]pyrimido[5′,4′:4,5]pyrrolo[3,2-e]azepin-5(4H)-yl)ethan-1-one 2,2,2-trifluoroacetate] | 53 | 235 | 130 | 255 | 144 | 217 | 58
9 | CC(C)n1c2c(c3c(N)ncnc31)-c1noc(C3CC3)c1S(=O)(=O)NC2 [Example 21, 11-amino-3-cyclopropyl-7-isopropyl-6,7-dihydro-5H-isoxazolo[3,4-f]pyrimido[5′,4′:4,5]pyrrolo[2,3-d][1,2]thiazepine 4,4-dioxide 2,2,2-trifluoroacetate] | 28 | 44 | 31 | 83 | 87 | – | 9
10 | CC(C)n1c2c(c3c(N)ncnc31)-c1cc3ccc(C(=O)NC4CC4)cc3n1C(=O)NC2 [Example 72, 1-amino-N-cyclopropyl-5-isopropyl-8-oxo-5,6,7,8-tetrahydropyrimido[5″,4″:4′,5′]pyrrolo[2′,3′:5,6][1,3]diazepino[1,7-a]indole-11-carboxamide] | 3960 | – | 3090 | 6350 | 16200 | 2630 | 512
11 | CC(C)n1c2c(c3c(N)ncnc31)-c1cc3ccc(C#N)cc3n1C(=O)NC2 [Example 76, 1-amino-5-isopropyl-8-oxo-5,6,7,8-tetrahydropyrimido[5″,4″:4′,5′]pyrrolo[2′,3′:5,6][1,3]diazepino[1,7-a]indole-11-carbonitrile] | 143 | – | 118 | 570 | 845 | 292 | 117
12 | COC(=O)c1ccc2cc3n(c2c1)C(=O)NCc1c-3c2c(N)ncnc2n1C(C)C [Example 70, Methyl 1-amino-5-isopropyl-8-oxo-5,6,7,8-tetrahydropyrimido[5″,4″:4′,5′]pyrrolo[2′,3′:5,6][1,3]diazepino[1,7-a]indole-11-carboxylate] | 166 | – | 183 | 388 | 607 | 312 | 92
13 | CC(C)n1c2c(c3c(N)ncnc31)-c1cc3c(F)cccc3n1C(=O)NC2 [Example 83, 1-amino-13-fluoro-5-isopropyl-6,7-dihydropyrimido[5″,4″:4′,5′]pyrrolo[2′,3′: 5,6][1,3]diazepino[1,7-a]indol-8(5H)-one] | 293 | – | 58 | 812 | 1060 | 97 | 63
